Measured values reported in paper PMC8284453 (Antimicrobial Agents and Chemotherapy, 2021).
≈ marks a conversion by molar mass, not a printed value. Where “and” joins values, the source holds several entries; their conditions need not be identical. Identical values can stand only once.

Legend:
[1] = tested on: Enterobacterales expressing class A carbapenemases (KPC); assay: organism not typed; assay type: cell-based, K. pneumoniae, E. coli, E. cloacae, Klebsiella oxytoca
[2] = tested on: Enterobacterales expressing class D oxacillinases (OXA-48/48-like); assay: organism not typed; assay type: cell-based, E. coli, K. pneumoniae
[3] = tested on: Enterobacterales expressing class A ESBLs; assay: organism not typed; assay type: cell-based, E. coli, K. pneumoniae
[4] = tested on: isogenic strains of E. coli expressing Ambler class A, B, C, and D enzymes; assay: microbe, parasite or virus in culture; assay type: cell-based, Escherichia coli; conditions: for Fold increase in MIC compared to vector control: inhibitor fixed at 4 μg/ml
[5] = 25 isolates, BLI fixed at 4 μg/ml, AMC 2:1

Molecule `C[C@@H](O)[C@H]1C(=O)N2C(C(=O)O)=C(SC3CN(C4=NCCS4)C3)[C@H](C)[C@H]12` [Tebipenem] has an MIC ([1]; K. pneumoniae 847379 (KPC)) of 16 µg/mL (≈ 41.7 µM), an MIC ([1]; K. pneumoniae 847383 (KPC)) of no less than 64 µg/mL and an MIC ([1]; K. pneumoniae 847384 (KPC)) of no less than 64 µg/mL. For the same molecule, the MIC ([1]; K. pneumoniae 847387 (KPC)) was no less than 64 µg/mL, the MIC ([1]; K. pneumoniae 847747 (KPC)) was no less than 64 µg/mL and the MIC ([1]; K. pneumoniae 848832 (KPC)) was no less than 64 µg/mL. It also gave an MIC ([1]; K. pneumoniae 848844 (KPC)) of no less than 64 µg/mL, an MIC ([1]; K. pneumoniae 897067 (KPC)) of 32 µg/mL (≈ 83.4 µM) and an MIC ([1]; K. pneumoniae UMM (KPC-2, SHV-5, TEM-1)) of 32 µg/mL (≈ 83.4 µM). The MIC50 [2, 5] was 4 µg/mL and 8 µg/mL, the MIC90 [2, 5] was 16 µg/mL and 32 µg/mL and the MIC ([2]; E. coli 664507 (OXA-48)) was 4 µg/mL (≈ 10.4 µM). For the same molecule, the MIC ([2]; E. coli 664516 (OXA-48)) was 8 µg/mL (≈ 20.9 µM), the MIC ([2]; E. coli 664520 (OXA-48)) was 4 µg/mL (≈ 10.4 µM) and the MIC ([2]; E. coli 664522 (OXA-48)) was 8 µg/mL (≈ 20.9 µM). For the same molecule, the MIC ([2]; E. coli 664523 (OXA-48)) was 4 µg/mL (≈ 10.4 µM), the MIC ([2]; E. coli 664524 (OXA-48)) was 4 µg/mL (≈ 10.4 µM) and the MIC ([2]; E. coli 664525 (OXA-48)) was 8 µg/mL (≈ 20.9 µM). For the same molecule, the MIC ([2]; E. coli 664526 (OXA-48)) was 4 µg/mL (≈ 10.4 µM), the MIC ([2]; E. coli 664528 (OXA-48)) was 4 µg/mL (≈ 10.4 µM) and the MIC ([2]; E. coli 787112 (OXA-48)) was 8 µg/mL (≈ 20.9 µM). For the same molecule, the MIC ([2]; E. coli SI-422 (OXA-48)) was 1 µg/mL (≈ 2.61 µM), the MIC ([2]; E. coli VER (OXA-48)) was 1 µg/mL (≈ 2.61 µM) and the MIC ([2]; K. pneumoniae 6299 (OXA-163)) was 4 µg/mL (≈ 10.4 µM). The MIC ([2]; K. pneumoniae 515746 (OXA-48), first line) was 1 µg/mL (≈ 2.61 µM), the MIC ([2]; K. pneumoniae 515746 (OXA-48), second line) was 0.5 µg/mL (≈ 1.3 µM) and the MIC ([2]; K. pneumoniae 664438 (OXA-48)) was 8 µg/mL (≈ 20.9 µM). The MIC ([2]; K. pneumoniae 664439 (OXA-48)) was 4 µg/mL (≈ 10.4 µM), the MIC ([2]; K. pneumoniae 664509 (OXA-48)) was no less than 64 µg/mL and the MIC ([2]; K. pneumoniae 664518 (OXA-48)) was 4 µg/mL (≈ 10.4 µM). For the same molecule, the MIC ([2]; K. pneumoniae 722870 (OXA-48)) was 1 µg/mL (≈ 2.61 µM), the MIC ([2]; K. pneumoniae BAH (OXA-204)) was 0.5 µg/mL (≈ 1.3 µM) and the MIC ([2]; K. pneumoniae DEL (OXA-232)) was no less than 64 µg/mL. It also gave an MIC ([2]; K. pneumoniae DOV (OXA-48)) of 0.5 µg/mL (≈ 1.3 µM), an MIC ([2]; K. pneumoniae KIRK (OXA-162)) of 1 µg/mL (≈ 2.61 µM) and an MIC ([2]; K. pneumoniae SI-C17 (OXA-48)) of 16 µg/mL (≈ 41.7 µM). The MIC50 [3] was 0.03 µg/mL (≈ 0.0782 µM), the MIC90 [3] was 0.06 µg/mL (≈ 0.156 µM) and the MIC range [3, 5] was no more than 0.016 to 0.12 µg/mL. The “Fold increase in MIC compared to vector control” value (“Fold increase in MIC” for short) ([4]; E. coli expressing ACT-17 (class C)) was 4, the “Fold increase in MIC” value ([4]; E. coli expressing CMY-2 (class C)) was 4 and the “Fold increase in MIC” value ([4]; E. coli expressing CMY-42 (class C)) was 16. For the same molecule, the “Fold increase in MIC” value ([4]; E. coli expressing CTX-M-15 (class A)) was 4, the “Fold increase in MIC” value ([4]; E. coli expressing GES-5 (class A)) was 512 and the “Fold increase in MIC” value ([4]; E. coli expressing KPC-3 D179Y (class A)) was 8. The “Fold increase in MIC” value ([4]; E. coli expressing NDM-1 (class B)) was 2,048, the “Fold increase in MIC” value ([4]; E. coli expressing OXA-23 (class D)) was 128 and the “Fold increase in MIC” value ([4]; E. coli expressing OXA-48 (class D)) was 256. For the same molecule, the “Fold increase in MIC” value ([4]; E. coli expressing OXA-163 (class D)) was 32, the “Fold increase in MIC” value ([4]; E. coli expressing OXA-181 (class D)) was 256 and the “Fold increase in MIC” value ([4]; E. coli expressing P99/AmpC (class C)) was 8. The “Fold increase in MIC” value ([4]; E. coli expressing PER-1 (class A)) was 4, the “Fold increase in MIC” value ([4]; E. coli expressing SHV-5 (class A)) was 4 and the “Fold increase in MIC” value ([4]; E. coli expressing SHV-12 (class A)) was 4. For the same molecule, the “Fold increase in MIC” value ([4]; E. coli expressing TEM-10 (class A), modal MIC, 4 replicates) was 4, the “Fold increase in MIC” value ([4]; E. coli expressing VEB-9 (class A)) was 2 and the MIC ([4]; Escherichia coli, read-out: Vector control MIC) was 0.016 µg/mL (≈ 0.0417 µM).
